Measured values: US11504320B2, “Use of naturally glycosylated polyphenols as protective agents against the effects of ultraviolet irradiation” (MEDENA AG, priority 2017, dated 2022)
Entries after “also recorded” stand apart in the source; their conditions may differ. Like-named read-outs stand apart in the source and are kept apart here. Marks after values point to notes of the source that are not given here.

Key:
[1] = Broad band UVB and UVA absorption (SPF and UVA/UVB ratio) of sunscreens; format: physicochemical; conditions: for SPF1 (sun protection factor corresponding to UVB absorption): 250 μM sunscreen; for SPF2 (sun protection factor corresponding to UVB absorption): 10% (weight %) sunscreen
Description: For the invention as claimed data are presented in support of the surprising finding that definite naturally glycosylated polyphenols provide optimal photo-protection due to several reasons. They effectively absorb broad-band range of UV light in both spectrum regions: UVA and UVB. […] The efficacy of absorption is expressed as SPF (sun protection factor) for UVB range representing an integral of absorption within the whole UVB spectrum. The efficacy of absorption is also calculated as the UVA/UVB ratio showing that the ratio should be greater than 0.5 up to 1.2 in order to provide proper UVA protection.

[2] = Photo stability: effect of solar simulating UV irradiation on SPF values of sunscreens; format: physicochemical; conditions: for SPF after UV irradiation: fifty μM solution
Description: Fifty μM sunscreen solutions placed in 3.5 cm Petri dishes were irradiated by 66% UVA+33% UVB for 1, 3, 20, and 40 min. Final doses of UV irradiation were 0.15, 0.45, 3.0, and 6.0 J/cm^2, respectively. * p<0.05 vs background SPF; ** p<0.01 vs background SPF.

skin cells = assay: Photo-chemo-toxicity (photo-chemo damage to skin cells); format: cell-based
Description: This is true for quercetin and its alpha-glycosylated derivative, resveratrol, chalcone and many others. The phenomenon of photo-chemo-toxicity depends of UV-induced destruction of the parent molecule and cytotoxicity exerted by the formed metabolites.

[3] = UV (66% UVA + 33% UVB) 0 J/cm^2
[4] = UV (66% UVA + 33% UVB) 0.15 J/cm^2 (1 min)
[5] = UV (66% UVA + 33% UVB) 0.45 J/cm^2 (3 min)
[6] = UV (66% UVA + 33% UVB) 3.0 J/cm^2 (20 min)
[7] = UV (66% UVA + 33% UVB) 6.0 J/cm^2 (40 min)
[8] = solar simulated UVB+UVA irradiation

| Compound | UVA/UVB (ratio of UVA to UVB absorption) [1] | SPF1 (sun protection factor corresponding to UVB absorption) [1] | SPF2 (sun protection factor corresponding to UVB absorption) [1] | SPF after UV irradiation [2, 3] | SPF after UV irradiation [2, 6] | SPF after UV irradiation [2, 7] | Photo-stability on exposure to UV irradiation (in words) [2, 8] | other results |
| --- | --- | --- | --- | --- | --- | --- | --- | --- |
| O=c1cc(-c2ccccc2)oc2cc(O)c(O)c(O)c12 [Baicalein] | 1.14 | 3.65 ± 0.12 | 5.41 ± 0.12 | 3.68 ± 0.15 | 3.69 ± 0.12 | 3.79 ± 0.12 | easily destructed | SPF after UV irradiation [2, 4]: 3.63 ± 0.12; SPF after UV irradiation [2, 5]: 3.62 ± 0.13 |
| O=C(/C=C/c1ccccc1)c1ccccc1 [Ghalcone] | – | – | – | – | – | – | – | Photo-chemo-toxicity (in words) (skin cells; skin cells, UV): photo-chemo-toxicity |
| O=c1c(O)c(-c2ccc(O)cc2O)oc2cc(O)cc(O)c12 [Morin] | 1.70 | 2.63 ± 0.08 | 3.48 ± 0.12 | – | – | – | – | – |
| O=c1c(O)c(-c2ccc(O)c(O)c2)oc2cc(O)cc(O)c12 [Quercetin] | – | – | – | – | – | – | photo-unstable | Photo-stability on exposure to UV irradiation (in words) ([2]; solar simulated UVB+UVA irradiation, listed as quercetin): unstable to exposure to UV irradiation; also recorded: easily destructed; Photo-chemo-toxicity (in words) (skin cells): photo-chemo-toxicity |
| Oc1ccc(C=Cc2cc(O)cc(O)c2)cc1 [Resveratrol] | – | – | – | 11.98 ± 0.11 | 4.93 ± 0.16 | 4.63 ± 0.10 | unstable to exposure to UV irradiation; also recorded: easily destructed | SPF after UV irradiation [2, 4]: 4.81 ± 0.20**; SPF after UV irradiation [2, 5]: 4.25 ± 0.20; Photo-chemo-toxicity (in words) (skin cells): photo-chemo-toxicity |
| O=C1c2c(O)cc(O)cc2O[C@H](c2ccc(O)c(O)c2)[C@H]1O [Taxifolin] | 0.46 | 6.38 ± 0.12 | 8.39 ± 0.14 | 6.38 ± 0.12 | 6.38 ± 0.12 | 6.39 ± 0.12 | – | – |
| C[C@@H]1O[C@@H](O[C@@H]2[C@@H](O)[C@H](OCCc3ccc(O)c(O)c3)O[C@H](CO)[C@H]2OC(=O)/C=C/c2ccc(O)c(O)c2)[C@H](O)[C@H](O)[C@H]1O [Verbascoside] | 0.59 | 8.25 ± 0.09 | 5.29 ± 0.09 | 8.25 ± 0.09 | 8.23 ± 0.12 | 8.26 ± 0.10 | – | – |
| O=c1c(O)c(-c2ccc(O)cc2)oc2cc(O)cc(O)c12 [kaempferol] | – | – | – | – | – | – | unstable to exposure to UV irradiation | Photo-stability on exposure to UV irradiation (in words) ([2]; solar simulated UVB+UVA irradiation, listed as kaempherol): easily destructed |
| O=c1c(O)c(-c2cc(O)c(O)c(O)c2)oc2cc(O)cc(O)c12 [myricetin] | – | – | – | – | – | – | easily destructed | – |
| COc1cc(/C=C/C(=O)O)ccc1O [trans-Ferulic acid] | – | – | – | 7.34 ± 0.18 | 3.61 ± 0.13 | 3.74 ± 0.17 | – | SPF after UV irradiation [2, 4]: 5.34 ± 0.09**; SPF after UV irradiation [2, 5]: 3.91 ± 0.11 |
| Leontopodic acids | 0.51 | 11.83 ± 0.12 | 6.79 ± 0.12 | – | – | – | – | – |
| alpha-glycosyl quercetin [alpha-glycosylated derivative] | – | – | – | – | – | – | – | Photo-stability on exposure to UV irradiation (in words) [2]: photo-unstable; Photo-chemo-toxicity (in words) (skin cells): photo-chemo-toxicity |
